Earlier results as cited in patent US20080004279A1, “Use of C-Kit Inhibitors for Treating Plasmodium Related Diseases” (priority 2004, published 2008).
pIC50: −log10 of the molar value. Blank lines part the entries; values can stand above or below the compound they belong to.

Legend:
[1] = tested on: GPI-induced NO production in macrophages and vascular endothelial cells

Compound: S=C(S)N1CCCC1 [pyrrolidine dithiocarbamate]
- GPI-induced NO production / release [1]: blocked

Compound: calphostin C
- GPI-induced NO production / release [1]: blocked

Compound: O=c1c(-c2ccc(O)cc2)coc2cc(O)cc(O)c12 [genistein]
- release of NO by parasite extracts and by GPI ([1]; GPI alone or in combination with IFN-gamma): inhibited

- pIC50 (membrane bound PTK; read-out: inhibition of membrane bound PTK activity, IC50, dose dependent, P. falciparum): 4.35
Compound: CCN(CC)CCCC(C)Nc1ccnc2cc(Cl)ccc12 (stereo not drawn) [Chloroquine]
- mode of inhibition of PTK with respect to ATP (membrane bound PTK; kinetic studies): noncompetitive
- mode of inhibition of PTK with respect to peptide substrate (membrane bound PTK; kinetic studies): competitive inhibitor
